Reference: a melting point compilation (Tetko et al.; mined from patent text by program, amines drawn as free bases though some values may be those of a salt)

Work on `N#Cc1ccc(-c2ccc3c(c2)CCc2nn(-c4ccccn4)c(O)c2-3)cc1` yielded a melting point of 274 to 275 °C. `Cc1cc(OCc2coc(/C=C/c3ccc(S(=O)C(F)(F)F)cc3)n2)ccc1CCCCn1ccnn1` (configuration not stated) gave a melting point of 113 to 114 °C. `C=CCOC(=O)C(C)(C)Cc1c(SC(C)(C)C)c2cc(O)ccc2n1Cc1ccc(Cl)cc1` gave a melting point of 150 to 151 °C. For `Nc1nsc(Nc2c(Cl)cccc2Cl)n1`, the melting point was 178 to 179 °C. Work on `Cc1cc(Nc2ccc(C(C)(C)C)cc2)c2[nH]ncc2n1` yielded a melting point of 258 to 262 °C. `CCCCCCCCCCC[C@@H](C[C@@H]1OC(=O)[C@H]1CCCCCC)OCCC(N)=O` showed a melting point of 35 °C. Work on `CCOC(=Cc1ccc(C(=O)OC)cc1)c1ccc2c(c1)C(C)(C)CCC2(C)C` yielded a melting point of 204 to 206 °C. Work on `OC(C=Cc1ccccc1)Cn1ccnc1` (configuration not stated) yielded a melting point of 108 to 110 °C. Work on `O=C(O)Cc1c(C(=O)c2ccc(Cl)cc2)[nH]c2cc(F)ccc12` yielded a melting point of 214 °C. Work on `O=C(O)CN1CC(=O)NC1=NN=Cc1ccccc1` yielded a melting point of 218 to 222 °C. `Cc1cc2c(cc1C(O)c1c(C(F)(F)F)ccnc1Cl)OCO2` (configuration not stated) gave a melting point of 127 to 130 °C. `Cc1cc2c(C=O)c3ccccc3c(C=O)c2cc1C` showed a melting point of 203 to 204 °C. `CCCCCCOP(=O)(OCCCCCC)c1ccc(NC(=O)c2cccc([N+](=O)[O-])c2)cc1` gave a melting point of 98 °C. Work on `Cn1c(=O)c(S(C)(=O)=O)c(O)c2ccccc21` yielded a melting point of 169 to 172 °C. Work on `COc1ccc2c(c1)c(OC(C)C)c(C(=O)O)n2C` yielded a melting point of 110 to 112 °C. Work on `CONCc1nc2c(N)nc(C)c(C)c2n1CC(C)C` yielded a melting point of 154 to 156 °C. Compound `O=C(O)CCP(=O)(O)c1ccccc1` has a melting point of 158 to 161 °C. Compound `COC(=O)c1ccc(N)cn1` has a melting point of 147 to 150 °C. Work on `C[Si](C)(C)C#Cc1ccc(O)cc1` yielded a melting point of 60 to 63.5 °C. `COC(=O)c1[nH]nc2c1CCc1cc(OC)c(Br)cc1-2` gave a melting point of 240 to 241 °C. `COc1ccc(C(=O)NCCOc2ccc(CC(Oc3ccccc3)C(=O)O)cc2)cn1` (configuration not stated) gave a melting point of 145 to 146 °C. In the case of `CC1CC(=O)NN=C1c1ccc(CCCCN)cc1` (configuration not stated), the melting point is reported as 135 to 137 °C. Compound `CSc1ncc(CCN2CCC(C3(c4ccc(F)cc4)OCCO3)CC2)c(O)n1` has a melting point of 206 °C. `CC(=O)n1nc(C2CCN(CCc3c(C)nc4c(C)cccn4c3=O)CC2)c2ccc(F)cc21` showed a melting point of 210 °C. `Nc1cnn2cnc3ccccc3c12` gave a melting point of 168 to 170 °C. In the case of `NC(=O)c1ccc(CCn2ccn(C3CCc4ccccc4C3)c2=S)cc1` (configuration not stated), the melting point is reported as 158 to 160 °C. In the case of `COCC1CCCN1S(=O)(=O)c1ccc2c(c1)C1(OCCCO1)C(=O)N2CCC#N` (configuration not stated), the melting point is reported as 138 to 141 °C. Work on `CS(=O)(=O)c1ccc(-c2oc3ccccc3c(=O)c2-c2ccc(Br)cc2)cc1` yielded a melting point of 168 to 170 °C. `COc1cncnc1OCc1ccc(C(C)(C)C)cc1` gave a melting point of 58 to 59 °C. With `Cc1nn(C)c(-c2ccccc2)c1N` the melting point was 138 to 139 °C. Work on `CC(=O)N(c1nc(N)no1)c1c(Cl)cccc1Cl` yielded a melting point of 164 to 165 °C. Compound `CC(N1C(=O)C(=O)N(c2ccc(F)cc2F)C1=S)C(C)(C)C` (configuration not stated) has a melting point of 155 to 156 °C. `O=C(O)Cc1ccc(CC2CCCCC2=NO)cc1` (configuration not stated) gave a melting point of 180 to 184 °C. `CCN1CCN(Cc2ccc3c(c2)Cc2c(-c4cccs4)n[nH]c2-3)CC1` gave a melting point of 170 °C. `COC1CCN(Cc2ccc(C#CC(=O)Nc3ccc(-c4ccc(Cl)cc4)cc3)cc2)CC1` gave a melting point of 145 to 146 °C. `CC(=O)C(O)C1OC(O)(N=C=O)C(O)(C(C)=O)C(O)(C(C)=O)C1(O)C(C)=O` (configuration not stated) gave a melting point of 113 to 115 °C. Compound `CCCCCCNc1nc(N)ccc1[N+](=O)[O-]` has a melting point of 69 to 73 °C. Work on `CCCc1nc2ccc(C(=O)NCc3ccc(N(C)C)cc3)cc2n1Cc1ccccc1Cl` yielded a melting point of 155 to 156 °C. `COc1cc(COc2nn(-c3ccccc3)cc2C=O)ccc1OCc1csc(N2CCOCC2)n1` gave a melting point of 128 to 129 °C. In the case of `COc1ccc(C(C)N(O)C(N)=O)cc1` (configuration not stated), the melting point is reported as 132 to 134 °C. For `CCOC(=O)c1cc2c(O)nncc2nc1N1CCCCC1`, the melting point was 178 to 179 °C. Compound `Cc1c(C)c2c(c3c1NCC3)CC(C)(C)O2` has a melting point of 107 to 109 °C. `Clc1cc2c(cc1Cn1c(Sc3ccccc3)nc(Br)c1Br)OCO2` gave a melting point of 165 °C. In the case of `Cc1cc2c(nc1C(O)c1cccs1)CCCCC2` (configuration not stated), the melting point is reported as 102 to 104 °C. Work on `CNC(=O)[C@@H]1CC[C@H](C(=O)O)N1Cc1ccccc1` (relative stereo) yielded a melting point of 190 to 192 °C. For `Cc1cc(OCCC#Cc2ccc(OC(F)(F)F)cc2)ccc1OC(C)(C)C(=O)O`, the melting point was 62 to 71 °C. `COC(=O)c1ccc(OC)nc1F` gave a melting point of 81 to 82 °C. `CS(=O)(=O)Nc1cc(C(=O)C=O)ccc1OCc1ccccc1` gave a melting point of 125 to 128 °C. In the case of `C=CCn1c(NCC)nc(N2CCc3ccccc3CC2)c(C#N)c1=O`, the melting point is reported as 172 to 177 °C. `CCOc1cccc(-c2cnn3c(-c4cccc(NC(=O)CC(C)C)c4)ccnc23)c1` gave a melting point of 156 to 158 °C. `COc1cccc(CC(=O)O)c1OCCCc1cn(-c2ccc(C(F)(F)F)cn2)nc1-c1ccccc1` gave a melting point of 134 to 135 °C. In the case of `CC(=O)N1CCCC1c1ccnc(-c2nc(=O)c3ccccc3s2)c1` (configuration not stated), the melting point is reported as 206 to 207 °C. `CC1(C)CC(S(=O)(=O)Cc2c(C(F)(F)F)nn3c2OCCC3)=NO1` showed a melting point of 151 to 152 °C. For `Cc1ccc(S(=O)(=O)NN=C2CCCCCCC2)cc1`, the melting point was 140 to 143 °C. Work on `CC(=O)c1ccc(N2CCN(Cc3cn4cc(Cl)ccc4n3)CC2)cc1` yielded a melting point of 186 to 187 °C. Compound `CCc1ccc(N(Cc2ccc(N3CCOCC3)cc2)C(=O)C2CCCc3c(O)cccc32)cc1` (configuration not stated) has a melting point of 200 °C. Compound `CCOC(=O)C1=CC2(CCC1S(=O)(=O)Nn1cccc1)OCCO2` (configuration not stated) has a melting point of 115 to 117 °C. In the case of `Cc1nc(COc2ccc3c(c2)c(SC(C)(C)C)c(CC(C)(C)C(=O)O)n3Cc2ccc(Cl)cc2)cs1`, the melting point is reported as 196 to 198 °C. With `C[C@]12CCC(=O)N[C@@H]1CCc1cc(Sc3cnc4ccccc4c3)ccc12` the melting point was 168 to 170 °C. In the case of `N#Cc1cc2c(c3ccc(=O)[nH]c13)OC(CN=[N+]=[N-])C2` (configuration not stated), the melting point is reported as 213 to 215 °C. Compound `CCN(CC)C(=O)Cc1ccc(O)c(C(C)(C)C)c1` has a melting point of 124 to 126 °C. Compound `Cc1cc(C)c(C(=O)Nc2ccccc2S(C)=O)c(I)c1` (configuration not stated) has a melting point of 114 °C. With `CC1Sc2nc3c(cnn3C)c(=O)n2C1C` (configuration not stated) the melting point was 168 to 170 °C. Work on `C=CCOC(=O)c1ccc(NC(C)=O)cc1O` yielded a melting point of 156 to 158 °C. Compound `Cc1c(N2C[C@@H](N)[C@@H](C(C)C)C2)c(F)cc2c(=O)c(C(=O)O)cn([C@@H]3C[C@@H]3F)c12` has a melting point of 124 to 127 °C. For `N#Cc1ccc(Cn2c3cc(O)c(O)cc3c3c(Br)cc(O)c(O)c32)cc1`, the melting point was over 260 °C. Compound `CC[C@H](C)N1CC(C)(C)[C@@H](Oc2ccc(C#N)c(C(F)(F)F)c2)C1=O` has a melting point of 101 to 102 °C. Compound `COC(=O)COc1c(-c2ccccc2)c(=O)[nH]c2cc(Cl)ccc12` has a melting point of 188 to 191 °C. `CCOc1nn(Cc2cc(OCc3ccc4ccccc4n3)no2)cc1CCC(=O)O` showed a melting point of 123 to 124 °C. For `N#Cc1ccc2nc(-c3ccc(Br)cc3)cn2c1`, the melting point was 262 to 264 °C. For `COC(=O)NC1=NC(c2ccc3ccccc3c2)CN1` (configuration not stated), the melting point was 227 to 228 °C. In the case of `O=C(NCCNC(c1ccccc1)(c1ccccc1)c1ccccc1)C(CCO)NC(c1ccccc1)(c1ccccc1)c1ccccc1` (configuration not stated), the melting point is reported as 71 to 72 °C. With `Cc1nc(NC(=O)c2ccc(-c3nn[nH]n3)cc2)sc1C(=O)NCc1ccccc1` the melting point was over 300 °C. For `CCOC(=O)c1sc(C)c2c1CCCC2=O`, the melting point was 76 to 77 °C. Work on `CCCCCCCNC(=O)Nc1ccccc1C(=O)NCCSc1nc(-c2ccccc2)c(-c2ccccc2)[nH]1` yielded a melting point of 285 to 288 °C. In the case of `Cc1ccc(C(=O)Nc2c[nH]nc2C(=O)NCCC#N)cn1`, the melting point is reported as 201 to 203 °C. `CC(c1oc2ccc(F)cc2c(=O)c1-c1ccccc1)n1cnc2c(N)ncnc21` (configuration not stated) gave a melting point of 264 to 269 °C. `CC(C)(C)CN1C(=O)[C@@H](CC(=O)NCc2nnn[nH]2)O[C@H](c2ccccc2Cl)c2cc(Cl)ccc21` (relative stereo) showed a melting point of 251 to 252 °C. In the case of `CCS(=O)(=O)C1=NCN(S(=O)(=O)CC)S1`, the melting point is reported as 42 °C. Compound `COC(=O)c1ccc2c(=O)c3ccccc3ccc2c1` has a melting point of 115 to 116 °C. Compound `COCCc1ccc(OCC(O)CNC(C)COc2ccc(O)c(C(N)=O)c2)cc1` (configuration not stated) has a melting point of 139 to 142 °C. `CCC1(CC)OC(=O)Nc2ccc(-c3cccc(Cl)c3)cc21` showed a melting point of 150 to 151 °C. With `C=CCOc1cc(OC)ccc1C(=O)c1ccccc1` the melting point was 40 °C. Work on `Cc1ccc(Oc2c(F)cc(C(F)(F)F)cc2Cl)cc1[N+](=O)[O-]` yielded a melting point of 113 to 115 °C. With `COc1ccccc1CC1NC(=O)NC1=O` (configuration not stated) the melting point was 186 °C. `COC1(C(C)=O)CCC2C3CCC4=CC(=O)CCC4(C)C3CCC21C` (configuration not stated) gave a melting point of 196 to 197 °C. With `CN(N)C(=O)Nc1ccccc1Oc1ccccc1` the melting point was 117 to 119 °C. For `Cc1cc(C2C3=C(CCS3)NC3=C2C(=O)CCC3)ccc1F` (configuration not stated), the melting point was over 260 °C. Compound `COC(=O)c1ccc(-c2c(C(=O)N(C)Cc3cc(C(F)(F)F)cc(C(F)(F)F)c3)n(C)c(=O)c3ncccc23)cc1` has a melting point of 123 to 125 °C. In the case of `C=CCN1CC(c2ccccc2)=C(O)C1=O`, the melting point is reported as 178 to 183 °C. Compound `N#Cc1cc(C=C2NC(=S)NC2=O)cc(O)c1O` has a melting point of 210 to 213 °C. Compound `O=[N+]([O-])c1ccc(S(=O)(=O)c2cc(Br)nc(Br)c2)cc1` has a melting point of 204 to 206 °C. `Cn1c(COc2ccc(CC3SC(=O)NC3=O)cc2)nc2ncccc21` (configuration not stated) showed a melting point of 231 to 232 °C. `Cc1ccc(S(=O)(=O)OC2CON(C(=O)OC(C)(C)C)C2)cc1` (configuration not stated) showed a melting point of 63 to 65 °C. With `CCON=C(CC)C1=C(O)CC(c2ccc(Oc3ccc(S(C)(=O)=O)cc3)cc2)CC1=O` (configuration not stated) the melting point was 155 to 157 °C. In the case of `CNC(=O)Nc1ccc(F)cc1F`, the melting point is reported as 182 to 183 °C. `COc1cc(N)c(Cl)cc1C(=O)N[C@H]1CCN(CCNc2nccnc2C)C[C@H]1OC` (relative stereo) showed a melting point of 170 °C. Compound `CO/C=C(/C(=O)OC)c1csc(C(=O)c2ccccc2)c1` has a melting point of 82 to 84 °C. Compound `CCCCCCCCCCCCCCCCOCC(O)CN1CCC(c2ccccc2)CC1` (configuration not stated) has a melting point of 64 to 65 °C. `O=C(Nc1ccc(C(=O)N2C[C@@H]3C[C@H](O)CN3c3ccccc32)cc1)c1ccccc1-c1ccccc1` showed a melting point of 164 to 165 °C. With `Cc1nc2c(cnn2-c2c(Cl)cc(C(F)(F)F)cc2Cl)c(=O)[nH]1` the melting point was 300 °C. In the case of `O=C(Cn1c(-c2ccc(Br)cc2)nc2cccnc21)N1CCCCC1`, the melting point is reported as 175 to 176 °C.
